The target of one assay is T1, PRMT5/MEP50 (Homo sapiens, UniProt O14744).
T1 construct: Flag-PRMT5; made in house; host or cells: Spodoptera frugiperda (SF9) insect cells, baculovirus (pDEST8)
In words: PRMT5 Biochemical Assay (PRMT5/MEP50 enzyme assay on peptide substrate, 3H-SAM Flashplate). Particulars: PRMT5/MEP50 4 nM, 3H-SAM 75 nM, peptide 40 nM, 30 min preincubation at 25 degrees Celsius. The source says:
S-adenosylmethionine (SAM), S-adenosylhomocysteine (SAH), bicine, KCl, Tween20, dimethylsulfoxide (DMSO), bovine skin gelatin (BSG), and Tris(2-carboxyethyl)phosphine hydrochloride solution (TCEP) were purchased from Sigma-Aldrich at the highest level of purity possible. ^3H-SAM was purchase from American Radiolabeled Chemicals with a specific activity of 80 Ci/mmol. 384-well streptavidin Flashplates were purchased from PerkinElmer.
Peptide representative of human histone H4 residues 1-15 was synthesized with a C-terminal linker-affinity tag motif and a C-terminal amide cap by 21st Century Biochemicals. The peptide was high high-performance liquid chromatography (HPLC) purified to greater than 95% purity and confirmed by liquid chromatography mass spectrometry (LC-MS). The sequence was Ac-[…][K-Biot]-amide (SEQ ID NO.:3).
Full-length human PRMT5 (NM_006109.3) transcript variant 1 clone was amplified from a fetal brain cDNA library, incorporating flanking 5′ sequence encoding a FLAG tag ([…]) (SEQ ID NO.:4) fused directly to Ala 2 of PRMT5. Full-length human MEP50 (NM_024102) clone was amplified from a human testis cDNA library incorporating a 5′ sequence encoding a 6-histidine tag (MHHHHHH) (SEQ ID NO.:5) fused directly to Arg 2 of MEP50. The amplified genes were sublconed into pENTR/D/TEV (Life Technologies) and subsequently transferred by Gateway™ attL×attR recombination to pDEST8 baculvirus expression vector (Life Technologies).
Recombinant baculovirus and Baculovirus-Infected Insect Cells (BIIC) were generated according to Bac-to-Bac kit instructions (Life Technologies) and Wasilko, 2006, respectively. Protein over-expression was accomplished by infecting exponentially growing Spodoptera frugiperda (SF9) cell culture at 1.2×10^6 cell/ml with a 5000 fold dilution of BIIC stock. Infections were carried out at 27° C. for 72 hours, harvested by centrifugation, and stored at −80° C. for purification.
Flag-PRMT5/6His-MeP50 was eluted with 300 mM Imidazole in the same buffer. The purity of recovered protein was 87%. Reference: Wasilko, D. J. and S. E. Lee: “TIPS: titerless infected-cells preservation and scale-up” Bioprocess J., 5 (2006), pp. 29-32.
General Procedure for PRMT5/MEP50 Enzyme Assays on Peptide Substrates.
The assays were all performed in a buffer consisting of 20 mM Bicine (pH=7.6), 1 mM TCEP, 0.005% BSG, and 0.002% Tween20, prepared on the day of use. Compounds in 100% DMSO (1 ul) were spotted into a polypropylene 384-well V-bottom plates (Greiner) using a Platemate Plus outfitted with a 384-channel head (Thermo Scientific). DMSO (1 ul) was added to Columns 11, 12, 23, 24, rows A-H for the maximum signal control and 1 ul of SAH, a known product and inhibitor of PRMT5/MEP50, was added to columns 11, 12, 23, 24, rows I-P for the minimum signal control. A cocktail (40 ul) containing the PRMT5/MEP50 enzyme and the peptide was added by Multidrop Combi (Thermo-Fisher). The compounds were allowed to incubate with PRMT5/MEP50 for 30 min at 25 degrees Celsius, then a cocktail (10 ul) containing ^3H-SAM was added to initiate the reaction (final volume=51 ul). The final concentrations of the components were as follows: PRMT5/MEP50 was 4 nM, ^3H-SAM was 75 nM, peptide was 40 nM, SAH in the minimum signal control wells was 100 uM, and the DMSO concentration was 1%. The assays were stopped by the addition of non-radioactive SAM (10 ul) to a final concentration of 600 uM, which dilutes the ^3H-SAM to a level where its incorporation into the peptide substrate is no longer detectable. 50 ul of the reaction in the 384-well polypropylene plate was then transferred to a 384-well Flashplate and the biotinylated peptides were allowed to bind to the streptavidin surface for at least 1 hour before being washed three times with 0.1% Tween20 in a Biotek ELx405 plate washer. […]

Assay [1] concerns Symmetric di-Methyl Arginine in Z-138 cells. In words: Z-138 Methylation Assay (In Cell Western for symmetric di-methyl arginine). In kind it is cell-based. The note with it: Homo sapiens, 96 hours incubation, symmetric di-methyl arginine normalised to DNA content, read-out: ICW EC50. From the text:
Z-138 suspension cells were purchased from ATCC (American Type Culture Collection, Manassas, Va.). RPMI/Glutamax medium, penicillin-streptomycin, heat inactivated fetal bovine serum, and D-PBS were purchased from Life Technologies, Grand Island, N.Y., USA. Odyssey blocking buffer, 800CW goat anti-rabbit IgG (H+L) antibody, and Licor Odyssey infrared scanner were purchased from Licor Biosciences, Lincoln, Nebr., USA. Symmetric di-methyl arginine antibody was purchased from EMD Millipore, Billerica, Mass., USA. 16% Paraformaldehyde was purchased from Electron Microscopy Sciences, Hatfield, Pa., USA.
Z-138 suspension cells were maintained in growth medium (RPMI 1640 supplemented with 10% v/v heat inactivated fetal bovine serum and 100 units/mL penicillin-streptomycin) and cultured at 37° C. under 5% CO2.
Cell Treatment, In Cell Western (ICW) for detection of Symmetric di-Methyl Arginine and DNA content.
Z-138 cells were seeded in assay medium at a concentration of 50,000 cells per mL to a 384-well cell culture plate with 50 μL per well. Compound (100 nL) from 384 well source plates was added directly to 384 well cell plate. Plates were incubated at 37° C., 5% CO2 for 96 hours. After four days of incubation, 40 μL of cells from incubated plates were added to poly-D-lysine coated 384 well culture plates (BD Biosciences 356697). Plates were incubated at room temperature for 30 minutes then incubated at 37° C., 5% CO2 for 5 hours. After the incubation, 40 μL per well of 8% paraformaldehyde in PBS (16% paraformaldahyde was diluted to 8% in PBS) was added to each plate and incubated for 30 minutes. Plates were transferred to a Biotek 405 plate washer and washed 5 times with 100 μL per well of wash buffer (IX PBS with 0.1% Triton X-100 (v/v)). Next […] well of Odyssey blocking buffer were added to each plate and incubated 1 hour at room temperature. Blocking buffer was removed and 20 μL per well of primary antibody was added (symmetric di-methyl arginine diluted 1:100 in Odyssey buffer with 0.1% Tween 20 (v/v)) and plates were incubated overnight (16 hours) at 4° C. Plates were washed 5 times with 100 μL per well of wash buffer. Next 20 μL per well of secondary antibody was added (1:200 800CW goat anti-rabbit IgG (H+L) antibody, 1:1000 DRAQ5 (Biostatus limited) in Odyssey buffer with 0.1% Tween 20 (v/v)) and incubated for 1 hour at room temperature. The plates were washed 5 times with 100 μL per well wash buffer then 1 time with 100 μL per well of water. Plates were allowed to dry at room temperature then imaged on the Licor Odyssey machine which measures integrated intensity at 700 nm and 800 nm wavelengths. Both 700 and 800 channels were scanned.
First, the ratio for each well was determined by:
Each plate included fourteen control wells of DMSO only treatment (minimum inhibition) as well as fourteen control wells for maximum inhibition treated with 3 μM of a reference compound (Background wells). The average of the ratio values for each control type was calculated and used to determine the percent inhibition for each test well in the plate. Reference compound was serially diluted three-fold in DMSO for a total of nine test concentrations, beginning at 3 μM. Percent inhibition was determined and IC50 curves were generated using triplicate wells per concentration of compound.

The test system of a further assay is Z-138 cell line. In words: Z-138 Proliferation Assay (Cell Titer Glo). The class given is cell-based. The note with it: Homo sapiens, 120 h; Z-138 cells, 5 days incubation, ATP (Cell Titer Glo). From the text: Z-138 Proliferation Assay
Z-138 suspension cells were purchased from ATCC (American Type Culture Collection, Manassas, Va.). RPMI/Glutamax medium, penicillin-streptomycin, heat inactivated fetal bovine serum were purchased from Life Technologies, Grand Island, N.Y., USA. V-bottom polypropylene 384-well plates were purchased from Greiner Bio-One, Monroe, N.C., USA. Cell culture 384-well white opaque plates were purchased from Perkin Elmer, Waltham, Mass., USA. Cell-Titer Glo® was purchased from Promega Corporation, Madison, Wis., USA. SpectraMax M5 plate reader was purchased from Molecular Devices LLC, Sunnyvale, Calif., USA.
Z-138 suspension cells were maintained in growth medium (RPMI 1640 supplemented with 10% v/v heat inactivated fetal bovine serum and cultured at 37° C. under 5% CO2. Under assay conditions, cells were incubated in assay medium (RPMI 1640 supplemented with 10% v/v heat inactivated fetal bovine serum and 100 units/mL penicillin-streptomycin) at 37° C. under 5% CO2.
For the assessment of the effect of compounds on the proliferation of the Z-138 cell line, exponentially growing cells were plated in 384-well white opaque plates at a density of 10,000 cells/ml in a final volume of 50 μl of assay medium. A compound source plate was prepared by performing triplicate nine-point 3-fold serial dilutions in DMSO, beginning at 10 mM (final top concentration of compound in the assay was 20 μM and the DMSO was 0.2%). A 100 nL aliquot from the compound stock plate was added to its respective well in the cell plate. […] After addition of compounds, assay plates were incubated for 5 days at 37° C., 5% CO2, relative humidity >90%.
Cell viability was measured by quantitation of ATP present in the cell cultures, adding 35 μl of Cell Titer Glo® reagent to the cell plates. Luminescence was read in the SpectraMax M5 microplate reader. The concentration of compound inhibiting cell viability by 50% was determined using a 4-parametric fit of the normalized dose response curves.
(In ATP-based viability assays light output follows the ATP content of the culture.)

T1 sequence (O14744 with tags, fused parts or gaps): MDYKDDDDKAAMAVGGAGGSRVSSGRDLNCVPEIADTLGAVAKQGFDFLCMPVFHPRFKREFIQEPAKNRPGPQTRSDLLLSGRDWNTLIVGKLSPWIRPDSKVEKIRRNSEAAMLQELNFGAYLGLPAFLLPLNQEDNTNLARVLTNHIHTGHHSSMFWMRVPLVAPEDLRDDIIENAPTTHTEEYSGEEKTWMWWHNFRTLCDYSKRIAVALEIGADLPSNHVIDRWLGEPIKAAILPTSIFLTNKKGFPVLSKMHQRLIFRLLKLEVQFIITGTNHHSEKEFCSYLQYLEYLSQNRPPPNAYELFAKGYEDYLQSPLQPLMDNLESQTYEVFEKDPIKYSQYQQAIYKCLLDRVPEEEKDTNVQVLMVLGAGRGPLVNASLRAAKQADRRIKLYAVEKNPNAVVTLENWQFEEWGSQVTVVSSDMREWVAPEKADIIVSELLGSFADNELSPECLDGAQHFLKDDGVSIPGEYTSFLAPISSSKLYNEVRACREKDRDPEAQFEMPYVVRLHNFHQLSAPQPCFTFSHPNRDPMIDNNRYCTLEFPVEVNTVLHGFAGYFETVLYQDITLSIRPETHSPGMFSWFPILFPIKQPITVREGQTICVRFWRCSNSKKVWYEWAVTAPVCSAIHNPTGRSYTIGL
T1 sequence (Q9BQA1 with tags, fused parts or gaps partner limits assumed): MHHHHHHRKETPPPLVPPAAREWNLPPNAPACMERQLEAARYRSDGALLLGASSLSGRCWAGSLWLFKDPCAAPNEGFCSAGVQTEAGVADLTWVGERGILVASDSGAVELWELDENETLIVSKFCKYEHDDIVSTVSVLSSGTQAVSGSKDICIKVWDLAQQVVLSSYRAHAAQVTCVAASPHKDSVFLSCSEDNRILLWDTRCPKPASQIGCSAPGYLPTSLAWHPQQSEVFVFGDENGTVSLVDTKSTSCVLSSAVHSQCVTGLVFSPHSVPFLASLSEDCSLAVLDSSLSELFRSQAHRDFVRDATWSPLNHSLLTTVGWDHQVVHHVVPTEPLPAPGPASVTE

The term IC50 denotes the concentration needed to halve the response being measured. One may read the EC50 as the concentration needed to bring the measured effect to its halfway point. With `O=C(NC[C@H](O)CN1CCc2[nH]ncc2C1)c1cc(NC2COC2)ncn1` [Compound 3-19], the IC50 on PRMT5/MEP50 was above 10 µM. The EC50 in assay [1] is above 1 µM.

Consider `OC(COc1cccc(CNC2CCCC2)c1)CN1CCc2ncccc2C1` (centres unmarked) [Compound 2-1, 1-(3-((cyclopentylamino)methyl)phenoxy)-3-(7,8-dihydro-1,6-naphthyridin-6(5H)-yl)propan-2-ol], for which the IC50 at PRMT5/MEP50 is above 50 µM. In the assay with Z-138 cell line, this compound displayed an EC50 above 40 µM.

As for `CC(=O)N1CC(Nc2cc(C(=O)NC[C@H](O)CN3CCc4nc(C)sc4C3)ncn2)C1` [Compound 1-6, (S)-6-((1-acetylazetidin-3-yl)amino)-N-(2-hydroxy-3-(2-methyl-6,7-dihydrothiazolo[5,4-c]pyridin-5(4H)-yl)propyl)pyrimidine-4-carboxamide], the IC50 on PRMT5/MEP50 was 1 to 10 µM. This compound came in with an EC50 in the assay on Z-138 cell line above 5 µM.

As to `OC(COc1cccc(CNC2CCCC2)c1)CN1CCc2[nH]ncc2C1` (centres unmarked) [Compound 3-14], at PRMT5/MEP50, the IC50 is above 50 µM. For the same compound, in the assay with Z-138 cell line, the EC50 is above 40 µM.

Consider `O=C(NC[C@H](O)CN1CCc2cccnc2C1)c1cc(NC2COC2)ncn1` [Compound 2-10], for which the IC50 on PRMT5/MEP50 lay in the range of 1 to 10 µM. Moreover, the EC50 in the assay with Z-138 cell line lay in the range of 1 to 10 µM.

Take `OC(COc1cccc(CNC2CCCC2)c1)CN1CCc2[nH]nc(-c3ccccc3)c2C1` (centres unmarked) [Compound 3-9, 1-(3-((cyclopentylamino)methyl)phenoxy)-3-(3-phenyl-6,7-dihydro-1H-pyrazolo[4,3-c]pyridin-5(4H)-yl)propan-2-ol]: the IC50 on PRMT5/MEP50 is 10 to 50 µM. In addition, the EC50 in the assay with Z-138 cell line is 10 to 50 µM.

In the case of `O=C(NC[C@H](O)CN1CCc2cn[nH]c2C1)c1cc(NC2COC2)ncn1` [Compound 3-39], the IC50 at PRMT5/MEP50 is above 10 µM. The compound further came in with an EC50 in the assay with Z-138 cell line above 5 µM.

For the origin of these results see patent US20170210751A1, “PRMT5 INHIBITORS AND USES THEREOF” (Epizyme, Inc., priority 2014, published 2017).
